Measurements taken from ChEMBL document CHEMBL5303573, “Mapping human microbiome drug metabolism by gut bacteria and their genes” (Nature, 2019).

Experiments:
[1] = The drug is tested on Eubacterium rectale strain: ATCC33656 for biotransformation. The drug concentrations were measured before and after a 12-h incubation by liquid-chromatography-coupled mass spectrometry (LC–MS); details: agathobacter rectalis, 2 µM
[2] = victivallis vadensis, 12 h, 2 µM
Description: The drug is tested on Victivallis vadensis strain: ATCC BAA-548 for biotransformation. The drug concentrations were measured before and after a 12-h incubation by liquid-chromatography-coupled mass spectrometry (LC–MS)

[3] = The drug is tested on Clostridium ramosum strain: DSM1402 for biotransformation. The drug concentrations were measured before and after a 12-h incubation by liquid-chromatography-coupled mass spectrometry (LC–MS); details: thomasclavelia ramosa, 2 µM
[4] = The drug is tested on Eggerthella lenta strain: ATCC25559 for biotransformation. The drug concentrations were measured before and after a 12-h incubation by liquid-chromatography-coupled mass spectrometry (LC–MS); details: 2 µM
[5] = segatella copri, 12 h, 2 µM
Description: The drug is tested on Prevotella copri strain: DSM18205 for biotransformation. The drug concentrations were measured before and after a 12-h incubation by liquid-chromatography-coupled mass spectrometry (LC–MS)

[6] = The drug is tested on Bacteroides dorei strain: DSM17855 for biotransformation. The drug concentrations were measured before and after a 12-h incubation by liquid-chromatography-coupled mass spectrometry (LC–MS); details: phocaeicola dorei, 2 µM
[7] = The drug is tested on Escherichia coli strain: BW25113 for biotransformation. The drug concentrations were measured before and after a 12-h incubation by liquid-chromatography-coupled mass spectrometry (LC–MS); details: 2 µM

SMILES | Bacterial Biotransformation [1] | Bacterial Biotransformation [2] | Bacterial Biotransformation [3] | Bacterial Biotransformation [4] | Bacterial Biotransformation [5] | Bacterial Biotransformation [6] | Bacterial Biotransformation [7]
CCC(COC(=O)c1cc(OC)c(OC)c(OC)c1)(c1ccccc1)N(C)C.O=C(O)/C=C\C(=O)O (stereo unspecified) | Compound metabolized | Compound metabolized | Compound NOT metabolized | Compound metabolized | Compound metabolized | Compound metabolized | Compound metabolized
CC1=C(CC(=O)O)c2cc(F)ccc2/C1=C\c1ccc([S+](C)[O-])cc1 (stereo unspecified) |  | Compound NOT metabolized | Compound NOT metabolized | Compound NOT metabolized | Compound NOT metabolized | Compound NOT metabolized | Compound NOT metabolized
O=C(NCc1ccccc1)OCCO [BURAMATE] | Compound NOT metabolized | Compound NOT metabolized | Compound NOT metabolized | Compound NOT metabolized | Compound NOT metabolized | Compound NOT metabolized | Compound NOT metabolized
C#C[C@]1(OC(C)=O)CC[C@H]2[C@@H]3CCC4=C[C@@H](OC(C)=O)CC[C@@H]4[C@H]3CC[C@@]21C [ETHYNODIOL DIACETATE] | Compound NOT metabolized | Compound NOT metabolized | Compound NOT metabolized | Compound NOT metabolized | Compound NOT metabolized | Compound NOT metabolized | 
C[C@]12C=CC(=O)C=C1CC[C@@H]1[C@@H]2C(=O)C[C@@]2(C)[C@H]1CC[C@]2(O)C(=O)CO [PREDNISONE] | Compound NOT metabolized | Compound NOT metabolized | Compound NOT metabolized |  | Compound NOT metabolized | Compound NOT metabolized | Compound NOT metabolized
CNNCc1ccc(C(=O)NC(C)C)cc1 [PROCARBAZINE] | Compound NOT metabolized | Compound NOT metabolized | Compound NOT metabolized |  | Compound NOT metabolized | Compound NOT metabolized | Compound NOT metabolized
CCN(CC)CCCC(C)Nc1c2ccc(Cl)cc2nc2ccc(OC)cc12 (stereo unspecified) [QUINACRINE] |  | Compound NOT metabolized | Compound NOT metabolized | Compound NOT metabolized | Compound NOT metabolized | Compound NOT metabolized | Compound NOT metabolized
CC(N)C12CC3CC(CC(C3)C1)C2 (stereo unspecified) [RIMANTADINE] | Compound NOT metabolized | Compound NOT metabolized | Compound NOT metabolized | Compound NOT metabolized | Compound NOT metabolized |  | 
CC(C)c1nc(CN(C)C(=O)N[C@H](C(=O)N[C@@H](Cc2ccccc2)C[C@H](O)[C@H](Cc2ccccc2)NC(=O)OCc2cncs2)C(C)C)cs1 [RITONAVIR] |  | Compound NOT metabolized | Compound NOT metabolized | Compound NOT metabolized | Compound NOT metabolized | Compound metabolized | Compound metabolized
CCN(C)C(=O)Oc1cccc([C@H](C)N(C)C)c1.O=C(O)C(O)C(O)C(=O)O [RIVASTIGMINE TARTRATE] | Compound NOT metabolized | Compound NOT metabolized | Compound NOT metabolized | Compound NOT metabolized | Compound NOT metabolized |  | Compound NOT metabolized
CN(C)CCc1c[nH]c2ccc(Cn3cncn3)cc12.O=C(O)c1ccccc1 [RIZATRIPTAN BENZOATE] |  | Compound NOT metabolized | Compound NOT metabolized | Compound NOT metabolized | Compound NOT metabolized | Compound NOT metabolized | 
CCCN(CCC)CCc1cccc2c1CC(=O)N2 [ROPINIROLE] |  | Compound NOT metabolized | Compound NOT metabolized | Compound NOT metabolized | Compound NOT metabolized | Compound NOT metabolized | Compound NOT metabolized
CC(C)c1nc(N(C)S(C)(=O)=O)nc(-c2ccc(F)cc2)c1/C=C/[C@@H](O)C[C@@H](O)CC(=O)[O-].CC(C)c1nc(N(C)S(C)(=O)=O)nc(-c2ccc(F)cc2)c1/C=C/[C@@H](O)C[C@@H](O)CC(=O)[O-].[Ca+2] [ROSUVASTATIN CALCIUM] | Compound NOT metabolized | Compound NOT metabolized | Compound NOT metabolized |  |  | Compound NOT metabolized | Compound NOT metabolized
O=C(O)CCC(=O)O.O=C(O[C@H]1CN2CCC1CC2)N1CCc2ccccc2[C@@H]1c1ccccc1 [SOLIFENACIN SUCCINATE] | Compound NOT metabolized | Compound NOT metabolized | Compound NOT metabolized | Compound NOT metabolized | Compound NOT metabolized |  | 
CC(C)NCC(O)c1ccc(NS(C)(=O)=O)cc1 (stereo unspecified) [SOTALOL] |  | Compound NOT metabolized | Compound NOT metabolized | Compound NOT metabolized | Compound NOT metabolized |  | Compound NOT metabolized
CNS(=O)(=O)Cc1ccc2[nH]cc(CCN(C)C)c2c1.O=C(O)CCC(=O)O [SUMATRIPTAN SUCCINATE] | Compound NOT metabolized | Compound NOT metabolized | Compound NOT metabolized |  | Compound NOT metabolized |  | Compound NOT metabolized
CCCCCNC(=N)N/N=C/c1c[nH]c2ccc(OC)cc12.O=C(O)/C=C\C(=O)O [TEGASEROD MALEATE] | Compound NOT metabolized | Compound NOT metabolized | Compound NOT metabolized |  | Compound NOT metabolized | Compound NOT metabolized | Compound NOT metabolized
CC(CN(C)C)CN1c2ccccc2CCc2ccccc21.O=C(O)/C=C\C(=O)O (stereo unspecified) [TRIMIPRAMINE MALEATE] | Compound NOT metabolized | Compound NOT metabolized | Compound NOT metabolized | Compound NOT metabolized |  | Compound NOT metabolized | Compound NOT metabolized
CC(=O)CC(c1ccccc1)c1c(O)c2ccccc2oc1=O (stereo unspecified) [WARFARIN] | Compound NOT metabolized | Compound NOT metabolized | Compound NOT metabolized | Compound NOT metabolized |  | Compound NOT metabolized | Compound NOT metabolized
Cc1ccc(-c2nc3ccc(C)cn3c2CC(=O)N(C)C)cc1 [ZOLPIDEM] | Compound NOT metabolized | Compound NOT metabolized | Compound NOT metabolized | Compound NOT metabolized | Compound NOT metabolized |  | Compound NOT metabolized
